The values below come from patent US8778966B2, “Quinolinone derivatives as PARP and tank inhibitors” (Janssen Pharmaceutica, NV, priority 2007, dated 2014).

This experiment addresses T1, Human PARP-1 enzyme (Homo sapiens, UniProt P09874).
T1 construct: purchased Trevigen
Put plainly: In vitro Scintillation Proximity Assay (SPA) for PARP-1 inhibitory activity. To be noted: read-out: in vitro SPA assay PARP-1 pIC50 (converted). The experiment is classed as biochemical. The method, boiled down: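 SPA assay: nicked-DNA-activated PARP-1 (0.1–0.2 μg/ml) ADP-ribosylates biotinylated histones (2 μg/ml) using [3H]-NAD+, 20 min at RT in Tris pH 8/DTT/MgCl2, stopped with 2 mM NAD+. Blank-subtracted cpm expressed as % control; IC50 by linear interpolation, reported as pIC50 (10−5 to 3×10−9 M tested).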
Background: In a scintillation proximity assay essentially only radioactivity close to the scintillant gives light.

T1 sequence (P09874 whole entry): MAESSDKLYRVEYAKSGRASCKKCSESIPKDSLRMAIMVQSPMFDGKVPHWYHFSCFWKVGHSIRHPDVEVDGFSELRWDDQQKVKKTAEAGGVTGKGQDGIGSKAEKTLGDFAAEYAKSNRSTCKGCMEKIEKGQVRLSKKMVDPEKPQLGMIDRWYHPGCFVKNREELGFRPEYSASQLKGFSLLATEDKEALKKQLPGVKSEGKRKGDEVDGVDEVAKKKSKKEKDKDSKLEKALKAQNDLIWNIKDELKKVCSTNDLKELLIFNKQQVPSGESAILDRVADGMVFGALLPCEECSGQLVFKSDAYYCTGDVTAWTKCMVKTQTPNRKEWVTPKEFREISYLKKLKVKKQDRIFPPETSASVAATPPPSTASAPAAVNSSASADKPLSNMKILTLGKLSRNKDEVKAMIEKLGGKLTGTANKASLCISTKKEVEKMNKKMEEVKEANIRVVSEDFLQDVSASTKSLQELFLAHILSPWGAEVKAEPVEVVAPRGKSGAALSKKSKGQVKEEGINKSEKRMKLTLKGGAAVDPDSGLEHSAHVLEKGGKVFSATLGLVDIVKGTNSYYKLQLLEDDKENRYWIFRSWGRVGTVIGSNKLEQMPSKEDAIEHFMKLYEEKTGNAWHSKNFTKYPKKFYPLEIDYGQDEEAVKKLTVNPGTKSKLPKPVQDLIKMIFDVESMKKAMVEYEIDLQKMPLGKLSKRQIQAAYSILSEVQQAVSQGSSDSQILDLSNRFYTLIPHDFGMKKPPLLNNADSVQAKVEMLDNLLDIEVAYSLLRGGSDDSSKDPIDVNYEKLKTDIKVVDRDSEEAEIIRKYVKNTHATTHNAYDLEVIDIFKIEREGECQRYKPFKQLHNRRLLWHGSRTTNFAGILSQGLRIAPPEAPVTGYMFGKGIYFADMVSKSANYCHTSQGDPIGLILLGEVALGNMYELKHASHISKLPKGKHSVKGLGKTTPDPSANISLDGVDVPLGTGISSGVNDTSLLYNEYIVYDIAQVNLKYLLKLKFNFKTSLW

For the compound `CCc1cc2ccc(C(C)(C#N)Cc3cccc(-c4nc(C)no4)c3)cc2[nH]c1=O` (stereo not shown) [Compound 11], the IC50 was 631 nM. On to `CCc1cc2ccc([C@@](C)(C#N)CCOc3ccccc3)cc2[nH]c1=O` (single isomer, unassigned) [Compound 150], for which the IC50 was 501 nM. As for `CCc1cc2ccc(C(C)(C#N)Cc3ccc(C(F)(F)F)cc3)cc2[nH]c1=O` (stereo not shown) [Compound 108], the IC50 is 1260 nM.

Take `CCc1cc2ccc(C(C)(C#N)CCOc3cccc(C)c3)cc2[nH]c1=O` (stereo not shown) [Compound 143]: the IC50 was 794 nM. As for `CCc1cc2ccc(C(C)(C#N)CCOc3ccc(Br)cc3)cc2[nH]c1=O` (stereo not shown) [Compound 160], the IC50 was 794 nM. On to `CCc1cc2ccc(C(C)(C#N)CCOc3ccc4ccccc4c3)cc2[nH]c1=O` (stereo not shown) [Compound 157], for which the IC50 is 1580 nM. In the case of `CCc1cc2ccc(C(C#N)(CCOc3ccccc3)C3CC3)cc2[nH]c1=O` (stereo not shown) [Compound 166], the IC50 was 501 nM. As to `CCc1cc2ccc(C(C)(C#N)CCOc3cccc4ccccc34)cc2[nH]c1=O` (stereo not shown) [Compound 158], the IC50 is 1580 nM. Take `C#Cc1cccc(CC(C)(C#N)c2ccc3cc(CC)c(=O)[nH]c3c2)c1` (racemic) [Compound 168]: the IC50 was 631 nM. Turning to `CCc1cc2ccc(C(C)(C#N)Cc3ccc(C#N)cc3)cc2[nH]c1=O` (stereo not shown) [Compound 111], the IC50 was 251 nM. Regarding `CCc1cc2ccc(C(C)(C#N)Cc3cc(F)cc(C(F)(F)F)c3)cc2[nH]c1=O` (stereo not shown) [Compound 127], the IC50 was 1000 nM. As for `CCc1cc2ccc(C(C)(C#N)Cc3cccc(Cl)c3F)cc2[nH]c1=O` (stereo not shown) [Compound 130], the IC50 was 631 nM. For the compound `CCc1cc2ccc(C(C)(C#N)Cc3cc(Br)cc(Br)c3)cc2[nH]c1=O` (stereo not shown) [Compound 133], the IC50 is 794 nM.

Consider `CCc1cc2ccc(C(C)(C#N)Cc3cccc(S(C)(=O)=O)c3)cc2[nH]c1=O` (stereo not shown) [Compound 129], for which the IC50 is 631 nM. The same measure for `CCc1cc2ccc(C(C)(C#N)Cc3cc(F)cc(F)c3)cc2[nH]c1=O` (stereo not shown) [Compound 128]: 501 nM. As for `CCc1cc2ccc(C(C)(C#N)Cc3cccc(NS(C)(=O)=O)c3)cc2[nH]c1=O` (stereo not shown) [Compound 14], the IC50 was 398 nM. As to `CCc1cc2ccc(C(C)(C#N)Cc3ccc4c(c3)OCCO4)cc2[nH]c1=O` (stereo not shown) [Compound 124], the IC50 is 501 nM. The same measure for `CCc1cc2ccc(C(C)(C#N)Cc3c(Cl)cccc3Br)cc2[nH]c1=O` (stereo not shown) [Compound 136]: 1580 nM. In the case of `CCc1cc2ccc(C(C)(C#N)Cc3ccccc3C)cc2[nH]c1=O` (stereo not shown) [Compound 105], the IC50 was 794 nM. The same measure for `CCc1cc2ccc(C(C#N)(CC)C3CCc4ccc(F)cc43)cc2[nH]c1=O` (stereo not shown) [Compound 391]: 200 nM; for `CCc1cc2ccc(C(C)(C#N)Cc3c(F)c(F)c(F)c(F)c3F)cc2[nH]c1=O` (stereo not shown) [Compound 116]: 1000 nM. For the compound `CCc1cc2ccc(C(C)(C#N)Cc3ccc(OC)cc3)cc2[nH]c1=O` (stereo not shown) [Compound 119], the IC50 was 316 nM. In the case of `CCc1cc2ccc(C(C)(C#N)Cc3cc(F)cc(Cl)c3)cc2[nH]c1=O` (stereo not shown) [Compound 126], the IC50 is 794 nM.

For `CCc1cc2ccc(C(C)(C#N)Cc3cccc(F)c3)cc2[nH]c1=O` (stereo not shown) [Compound 112], the IC50 was 200 nM. Turning to `CCc1cc2ccc(C(C)(C#N)Cc3cccc(C(=O)O)c3)cc2[nH]c1=O` (stereo not shown) [Compound 10], the IC50 was 79.4 nM. Turning to `CCc1cc2ccc(C(C)(C#N)Cc3cc(C(F)(F)F)cc(C(F)(F)F)c3)cc2[nH]c1=O` (stereo not shown) [Compound 131], the IC50 was 1580 nM. The same measure for `CCc1cc2ccc(C(C)(C#N)Cc3cc(C)cc(C)c3)cc2[nH]c1=O` (stereo not shown) [Compound 125]: 1000 nM.

On to `CCc1cc2ccc(C(C)(C#N)CCOc3ccc4oc(C)c(C)c4c3)cc2[nH]c1=O` (stereo not shown) [Compound 162], for which the IC50 is 1000 nM. Take `CCc1cc2ccc(C(C)(C#N)Cc3ccc4ccccc4c3)cc2[nH]c1=O` (stereo not shown) [Compound 122]: the IC50 was 1260 nM. With `Cc1cc2ccc([C@@](C)(C#N)[C@H]3CCc4cc(C#N)ccc43)cc2[nH]c1=O` [Compound 389], the IC50 is 200 nM. For the compound `CCc1cc2ccc(C(C)(C#N)Cc3cccc(Cl)c3Cl)cc2[nH]c1=O` (stereo not shown) [Compound 121], the IC50 is 1580 nM. As for `CCOc1ccccc1OCCC(C)(C#N)c1ccc2cc(CC)c(=O)[nH]c2c1` (stereo not shown) [Compound 142], the IC50 was 631 nM.

In the case of `CCc1cc2ccc(C(C)(C#N)Cc3ccc(Br)cc3)cc2[nH]c1=O` (stereo not shown) [Compound 118], the IC50 is 398 nM.

For the compound `CCc1cc2ccc(C(C)(C#N)CC3CN(C)c4ccccc4O3)cc2[nH]c1=O` (stereo not shown) [Compound 156], the IC50 is 316 nM.

In the case of `CCc1cc2ccc(C(C)(C#N)CCOc3ccc(OC)cc3)cc2[nH]c1=O` (stereo not shown) [Compound 147], the IC50 is 158 nM.

In the case of `CCc1cc2ccc(C(C)(C#N)CCOc3ccc(C)cc3)cc2[nH]c1=O` (stereo not shown) [Compound 149], the IC50 is 398 nM. Turning to `CCc1cc2ccc(C(C)(C#N)CCOc3ccccc3C)cc2[nH]c1=O` (stereo not shown) [Compound 148], the IC50 is 316 nM.

On to `CCc1cc2ccc(C(C)(C#N)Cc3ccc(F)cc3)cc2[nH]c1=O` (stereo not shown) [Compound 115], for which the IC50 was 316 nM. Turning to `CCc1cc2ccc(C(C)(C#N)Cc3ccccc3Br)cc2[nH]c1=O` (stereo not shown) [Compound 104], the IC50 was 631 nM. Take `CCc1cc2ccc(C(C)(C#N)CC#Cc3cccc(F)c3)cc2[nH]c1=O` (stereo not shown) [Compound 184]: the IC50 was 100 nM. As for `CCc1cc2ccc(C(C)(C#N)CCOc3ccccc3Br)cc2[nH]c1=O` (stereo not shown) [Compound 153], the IC50 is 316 nM.

For `CCc1cc2ccc(C(C)(C#N)Cc3ccc(F)cc3Br)cc2[nH]c1=O` (stereo not shown) [Compound 139], the IC50 is 1260 nM. As to `Cc1cc2ccc([C@@](C)(C#N)[C@@H]3CCc4cc(C#N)ccc43)cc2[nH]c1=O` [Compound 245], the IC50 was 200 nM. With `CCc1cc2ccc(C(C)(C#N)CCOc3cccc4c3OCCO4)cc2[nH]c1=O` (stereo not shown) [Compound 163], the IC50 is 1260 nM.

With `CCc1cc2ccc(C(C)(C#N)Cc3cccc(C(F)(F)F)c3)cc2[nH]c1=O` (stereo not shown) [Compound 109], the IC50 is 794 nM. As to `CCc1cc2ccc(C(C)(C#N)Cc3cccc(OC(F)(F)F)c3)cc2[nH]c1=O` (stereo not shown) [Compound 110], the IC50 is 794 nM. With `CCc1cc2ccc(C(C)(C#N)Cc3cccc(C(F)(F)F)c3F)cc2[nH]c1=O` (stereo not shown) [Compound 134], the IC50 was 1260 nM. On to `CCc1cc2ccc(C(C)(C#N)CCOc3ccccc3C(C)=O)cc2[nH]c1=O` (stereo not shown) [Compound 159], for which the IC50 was 251 nM. For `CCc1cc2ccc([C@](C)(C#N)C[C@@H]3CCc4cc(C)ccc4O3)cc2[nH]c1=O` [Compound 251], the IC50 was 200 nM. The same measure for `CCc1cc2ccc(C(C)(C#N)Cc3cccc(C)c3)cc2[nH]c1=O` (stereo not shown) [Compound 107]: 251 nM; for `CCc1cc2ccc(C(C)(C#N)Cc3ccccc3F)cc2[nH]c1=O` (stereo not shown) [Compound 106]: 398 nM; for `CCc1cc2ccc(C(C)(C#N)Cc3cccc(OC)c3)cc2[nH]c1=O` (stereo not shown) [Compound 113]: 251 nM.

As for `CCc1cc2ccc(C(C)(C#N)CCOc3ccc(F)cc3)cc2[nH]c1=O` (stereo not shown) [Compound 144], the IC50 was 251 nM. As for `CCc1cc2ccc(C(C)(C#N)Cc3cccc(NC(=O)N4CCOCC4)c3)cc2[nH]c1=O` (stereo not shown) [Compound 16], the IC50 was 158 nM.

Consider `CCc1cc2ccc(C(C)(C#N)Cc3cccc(CCC#N)c3)cc2[nH]c1=O` (stereo not shown) [Compound 165], for which the IC50 is 251 nM.
